From US7662810B2, “2-arylmethylazetidine carbapenem derivatives and preparation thereof” (Korea Research Institute of Chemical Technology, priority 2004, dated 2010)

Legend:
[1] = test system: Staphylococcus aureus 256E; assay: Measurement of Minimum Inhibitory Concentration (MIC), MRSA; assay type: cell-based; conditions: Staphylococcus aureus 256E
Method: (§1) The antibacterial activities of the compounds of the present invention prepared in the above Examples against Gram-positive and Gram-negative bacteria, MRSA and QRS were tested as follows.
(§2) Respective bacterial strains were inoculated into 3 ml of Fleisch extract broth (beef extract 1%, peptone 1%, NaCl 0.3%, Na2HPO4.12H2O 0.2%, pH 7.4-7.5. 10% horse serum was supplemented for Streptococcus pyogenes and S. facium) and cultured on a shaking incubator at 37° C. for 18 hours. About 10^4 CFU/spot of the cultured bacterial strains were inoculated onto Müller-Hinton agar plates containing serial double dilutions (final concentration of 0.002 to 100 μg/ml) of a test compound employing an automatic inoculator (Dynatech, USA), and incubated at 37° C. for 18 hours. When the incubation was completed, the minimum inhibitory concentration was determined. Meropenem (Yuhan corporation, Korea) and vancomycin (Cj Inco., Korea) were used as standard antibiotics, respectively.

[2] = test system: Staphylococcus aureus 692E; assay: as above; assay type: cell-based; conditions: Staphylococcus aureus 692E
Method: as §1, §2

[3] = test system: Staphylococcus aureus 693E; assay: as above; assay type: cell-based; conditions: Staphylococcus aureus 693E
Method: as §1, §2

[4] = test system: Staphylococcus aureus 208E; assay: as above; assay type: cell-based; conditions: Staphylococcus aureus 208E
Method: as §1, §2

[5] = test system: Staphylococcus aureus 690E; assay: as above; assay type: cell-based; conditions: Staphylococcus aureus 690E
Method: as §1, §2

[6] = test system: Staphylococcus aureus 694E; assay: as above; assay type: cell-based; conditions: Staphylococcus aureus 694E
Method: as §1, §2

[7] = test system: Staphylococcus aureus 697E; assay: as above; assay type: cell-based; conditions: Staphylococcus aureus 697E
Method: as §1, §2

[8] = test system: Staphylococcus aureus 695E; assay: as above; assay type: cell-based; conditions: Staphylococcus aureus 695E
Method: as §1, §2

[9] = test system: Staphylococcus aureus 121E; assay: as above; assay type: cell-based; conditions: Staphylococcus aureus 121E
Method: as §1, §2

[10] = test system: Staphylococcus aureus 88E; assay: as above; assay type: cell-based; conditions: Staphylococcus aureus 88E
Method: as §1, §2

[11] = test system: Salmonella typhimurium 179; assay: Measurement of Minimum Inhibitory Concentration (MIC); assay type: cell-based; conditions: Salmonella typhimurium 179
Method: as §1, §2

[12] = test system: Staphylococcus pyogenes 77A; assay: as above; assay type: cell-based; conditions: Staphylococcus pyogenes 77A
Method: as §1, §2

[13] = test system: Enterobacter cloacae P 99; assay: as above; assay type: cell-based
Method: as §1, §2

[14] = test system: Escherichia coli 1507 E; assay: as above; assay type: cell-based
Method: as §1, §2

[15] = test system: Staphylococcus aureus 285; assay: as above; assay type: cell-based
Method: as §1, §2

[16] = test system: Escherichia coli 078; assay: as above; assay type: cell-based
Method: as §1, §2

[17] = test system: Escherichia coli DC 0; assay: as above; assay type: cell-based
Method: as §1, §2

[18] = test system: Klebsiella oxytoca 1082 E; assay: as above; assay type: cell-based
Method: as §1, §2

[19] = test system: Staphylococcus aureus 503; assay: as above; assay type: cell-based
Method: as §1, §2

[20] = test system: Escherichia coli TEM; assay: as above; assay type: cell-based; conditions: Escherichia coli TEM
Method: as §1, §2

[21] = test system: Staphylococcus faecium MD 8b; assay: as above; assay type: cell-based; conditions: Staphylococcus faecium MD 8b
Method: as §1, §2

[22] = test system: Staphylococcus pyogenes 308A; assay: as above; assay type: cell-based; conditions: Staphylococcus pyogenes 308A
Method: as §1, §2

[23] = test system: Klebsiella aerogenes 1522 E; assay: as above; assay type: cell-based
Method: as §1, §2

[24] = test system: Enterobacter cloacae 1321 E; assay: as above; assay type: cell-based
Method: as §1, §2

[25] = test system: Escherichia coli DC 2; assay: as above; assay type: cell-based
Method: as §1, §2

[26] = biological target: T1, Dihydropeptidase-1 (DHP-1) (Sus scrofa, UniProt P22412)
T1 sequence (P22412 17-384): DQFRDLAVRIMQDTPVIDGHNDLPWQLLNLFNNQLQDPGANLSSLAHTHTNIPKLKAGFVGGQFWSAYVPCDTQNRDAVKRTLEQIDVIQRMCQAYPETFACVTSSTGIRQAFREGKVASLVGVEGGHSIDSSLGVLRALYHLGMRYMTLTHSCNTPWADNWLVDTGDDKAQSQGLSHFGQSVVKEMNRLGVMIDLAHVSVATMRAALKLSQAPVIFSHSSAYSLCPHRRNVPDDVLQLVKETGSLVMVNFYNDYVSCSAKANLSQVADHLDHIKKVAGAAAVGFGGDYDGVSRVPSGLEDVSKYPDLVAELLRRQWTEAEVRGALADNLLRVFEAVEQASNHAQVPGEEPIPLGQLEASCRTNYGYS
Method: The rate of degradation of the inventive compounds by the action of DHP-1 enzyme extracted from hog kidney was determined as follow.
0.2 unit of the enzyme was allowed to react with the above solution at 30° C., and the absorbance at 299 nm of the remaining medicament was measured to determine the degradation rate. The absorbance was measured at 0, 0.5, 1, 2 and 4 hour points, and T1/2, the time when the concentration of the medicament become the half, was obtained by regression analysis.

[27] = test system: Staphylococcus epidermidis 178; assay: Measurement of Minimum Inhibitory Concentration (MIC), QRS; assay type: cell-based; conditions: QRS, Staphylococcus epidermidis 178
Method: as §1, §2

[28] = test system: Staphylococcus epidermidis 291; assay: as above; assay type: cell-based; conditions: QRS, Staphylococcus epidermidis 291
Method: as §1, §2

[29] = test system: Staphylococcus aureus 293; assay: as above; assay type: cell-based; conditions: QRS, Staphylococcus aureus 293
Method: as §1, §2

[30] = test system: Staphylococcus aureus 179; assay: as above; assay type: cell-based; conditions: QRS, Staphylococcus aureus 179
Method: as §1, §2

[31] = test system: Staphylococcus aureus 241; assay: as above; assay type: cell-based; conditions: QRS, Staphylococcus aureus 241
Method: as §1, §2

COc1ccccc1CN1CC(SC2=C(C(=O)[O-])N3C(=O)[C@H]([C@@H](C)O)[C@H]3[C@H]2C)C1.[K+] [Exam. 16, Potassium(1R,5S,6S)-2-[1-(2-methoxybenzyl)-azetidine-3-yl-thio]-6-[(1R)-1-hydroxylethyl]-1-methylcarbapen-2-em-3-carboxylate]
MIC [1]: 0.025 µg/mL
MIC [2]: 0.049 µg/mL
MIC [3]: 1.563 µg/mL
MIC [4]: 0.025 µg/mL
MIC [5]: 0.195 µg/mL
MIC [6]: 0.049 µg/mL
MIC [7]: 0.025 µg/mL
MIC [8]: 0.049 µg/mL
MIC [9]: 0.025 µg/mL
MIC [10]: 0.025 µg/mL
MIC [11]: 0.098 µg/mL
MIC [12]: 0.002 µg/mL
MIC [13]: 0.391 µg/mL
MIC [14]: 0.195 µg/mL
MIC [15]: 0.025 µg/mL
MIC [16]: 0.098 µg/mL
MIC [17]: 0.781 µg/mL
MIC [18]: 0.098 µg/mL
MIC [19]: 0.013 µg/mL
MIC [20]: 0.195 µg/mL
MIC [21]: 1.563 µg/mL
MIC [22]: 0.002 µg/mL
MIC [23]: 0.391 µg/mL
MIC [24]: 0.098 µg/mL
MIC [25]: 0.049 µg/mL
T1/2 (time when the concentration of the medicament become the half) [26]: 200.91
stability against hydrolysis by DHP-1 (in words) [26]: very stable
MIC [27]: 0.195 µg/mL
MIC [28]: 0.391 µg/mL
MIC [29]: 0.098 µg/mL
MIC [30]: 0.049 µg/mL
MIC [31]: 0.025 µg/mL

C[C@@H](O)[C@H]1C(=O)N2C(C(=O)[O-])=C(SC3CN(Cc4ccc(Cl)cc4)C3)[C@H](C)[C@H]12.[K+] [Exam. 18, Potassium(1R,5S,6S)-2-[1-(4-chlorobenzyl)-azetidine-3-yl-thio]-6-[(1R)-1-hydroxylethyl]-1-methylcarbapen-2-em-3-carboxylate]
Relative T1/2 [26]: 0.84
T1/2 (time when the concentration of the medicament become the half) [26]: 15.36

CC(c1ccc(Br)cc1)N1CC(SC2=C(C(=O)[O-])N3C(=O)[C@H]([C@@H](C)O)[C@H]3[C@H]2C)C1.[K+] (stereo partly drawn) [Exam. 24, Potassium(1R,5S,6S)-2-{1-[1-(4-bromophenyl)ethyl]-azetidine-3-yl-thio}-6-[(1R)-1-hydroxylethyl]-1-methylcarbapen-2-em-3-carboxylate]
Relative T1/2 [26]: 1.08
T1/2 (time when the concentration of the medicament become the half) [26]: 19.71

C[C@@H](O)[C@H]1C(=O)N2C(C(=O)[O-])=C(SC3CN([C@@H](C)c4ccccc4)C3)[C@H](C)[C@H]12.[K+] [Exam. 22, Potassium(1R,5S,6S)-2-{1-[(1S)-1-phenylethyl]-azetidine-3-yl-thio}-6-[(R)-1-hydroxylethyl]-1-methylcarbapen-2-em-3-carboxylate]
MIC [1]: 0.025 µg/mL
MIC [2]: 0.025 µg/mL
MIC [3]: 3.125 µg/mL
MIC [4]: 0.025 µg/mL
MIC [5]: 0.195 µg/mL
MIC [6]: 0.049 µg/mL
MIC [7]: 0.025 µg/mL
MIC [8]: 0.098 µg/mL
MIC [9]: 0.049 µg/mL
MIC [10]: 0.025 µg/mL
MIC [11]: 0.049 µg/mL
MIC [12]: 0.002 µg/mL
MIC [13]: 0.391 µg/mL
MIC [14]: 0.195 µg/mL
MIC [15]: 0.025 µg/mL
MIC [16]: 0.098 µg/mL
MIC [17]: 0.391 µg/mL
MIC [18]: 0.098 µg/mL
MIC [19]: 0.013 µg/mL
MIC [20]: 0.391 µg/mL
MIC [21]: 1.563 µg/mL
MIC [22]: 0.002 µg/mL
MIC [23]: 0.391 µg/mL
MIC [24]: 0.098 µg/mL
MIC [25]: 0.025 µg/mL
T1/2 (time when the concentration of the medicament become the half) [26]: 65.99
stability against hydrolysis by DHP-1 (in words) [26]: very stable
MIC [27]: 0.195 µg/mL
MIC [28]: 0.391 µg/mL
MIC [29]: 0.195 µg/mL
MIC [30]: 0.049 µg/mL
MIC [31]: 0.049 µg/mL
